From patent US20240041042A1, “1-(PYRIDYL)-5-AZINYLPYRAZOLE DERIVATIVES, AND THEIR USE FOR CONTROL OF UNDESIRED PLANT GROWTH” (Bayer Aktiengesellschaft, priority 2020, published 2024)
Where two headings read alike, the source gives them in different places.

Columns and labels:
Type in all cases: in vivo
Viola tricolor (VIOTR) [1] = test: Post-emergence herbicidal action against VIOTR
In short: (§1)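 Greenhouse plants sprayed at the one-leaf stage, 2–3 weeks after sowing, with WP or EC formulations plus 0.5% additive at 600 l/ha water. Activity rated visually after about 3 weeks versus untreated controls (100% = dead, 0% = like control), at 320 g/ha or lower.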

[2] = test system: Pharbitis purpurea (PHBPU); test: Post-emergence herbicidal action against PHBPU
In short: as §1

[3] = test system: Digitaria sanguinalis (DIGSA); test: Pre-emergence herbicidal action against DIGSA
In short: (§2)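 Seeds sown in pots and covered with soil; WP or EC formulations sprayed onto the soil surface at 600 l/ha water with 0.5% additive, at 320 g/ha or lower. Greenhouse growth for about 3 weeks, then visual scoring as % effect against untreated controls (100% = plants dead).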

[4] = test system: Verconica persica (VERPE); test: Post-emergence herbicidal action against VERPE
In short: as §1

[5] = test system: Amaranthus retroflexus (AMARE); test: Post-emergence herbicidal action against AMARE
In short: as §1

[6] = test system: Verconica persica (VERPE); test: Pre-emergence herbicidal action against VERPE; conditions: dosage 320 g/ha
In short: as §2

Lolium rigidum (LOLRI) [7] = test: Post-emergence herbicidal action against LOLRI
In short: as §1

Avena fatua (AVEFA) [8] = test: Post-emergence herbicidal action against AVEFA; conditions: 320 g/ha, visual rating about 3 weeks after treatment
In short: as §1

Oryza sativa (ORYSA) = conditions: crop plant compatibility
In short: (§3)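 Greenhouse crops in sandy loam sprayed post-emergence at the one-leaf stage, 2–3 weeks after sowing, with WP or EC formulations in water plus 0.5% additive at 600 l/ha. Damage rated visually about 3 weeks later versus untreated controls (0% = like control, 100% = dead); suffixes a–c denote different doses.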

[9] = test system: Matricaria inodora (MATIN); test: Pre-emergence herbicidal action against MATIN
In short: as §2

[10] = test system: Digitaria sanguinalis (DIGSA); test: Post-emergence herbicidal action against DIGSA; conditions: visual rating about 3 weeks after treatment
In short: as §1

[11] = test system: Echinochloa crus-galli (ECHCG); test: Post-emergence herbicidal action against ECHCG
In short: as §1

Setaria viridis (SETVI) [12] = test: Post-emergence herbicidal action against SETVI
In short: as §1

[13] = test system: Alopecurus myosuroides (ALOMY); test: Pre-emergence herbicidal action against ALOMY; conditions: scored visually after about 3 weeks, 100% = plants have died
In short: as §2

[14] = test system: Alopecurus myosuroides (ALOMY); test: Post-emergence herbicidal action against ALOMY; conditions: visual rating about 3 weeks after treatment vs untreated controls (100% = plants have died, 0% = like control plants)
In short: as §1

[15] = test system: Echinochloa crus-galli (ECHCG); test: Pre-emergence herbicidal action against ECHCG
In short: as §2

Setaria viridis (SETVI) [16] = test: Pre-emergence herbicidal action against SETVI
In short: as §2

[17] = test system: Abutilon theophrasti (ABUTH); test: Pre-emergence herbicidal action against ABUTH; conditions: Dosage column 320 g/ha (title prints 3200 g/ha); scored visually after about 3 weeks; 100% = plants have died
In short: as §2

Avena fatua (AVEFA) [18] = test: Pre-emergence herbicidal action against AVEFA; conditions: visual scoring after about 3 weeks vs untreated controls
In short: as §2

Viola tricolor (VIOTR) [19] = test: Pre-emergence herbicidal action against VIOTR
In short: as §2

[20] = test system: Amaranthus retroflexus (AMARE); test: Pre-emergence herbicidal action against AMARE; conditions: visual scoring after about 3 weeks vs untreated controls
In short: as §2

[21] = test system: Polygonum convolvulus (POLCO); test: Pre-emergence herbicidal action against POLCO
In short: as §2

[22] = test system: Abutilon theophrasti (ABUTH); test: Post-emergence herbicidal action against ABUTH; conditions: visual rating about 3 weeks after treatment vs untreated controls (100% = plants have died, 0% = like control plants)
In short: as §1

[23] = test system: Pharbitis purpurea (PHBPU); test: Pre-emergence herbicidal action against PHBPU
In short: as §2

Lolium rigidum (LOLRI) [24] = test: Pre-emergence herbicidal action against LOLRI
In short: as §2

Zea mays (ZEAMX) = conditions: 20 g/ha, ZEAMX, effect in comparison to untreated controls
In short: as §3

[25] = test system: Polygonum convolvulus (POLCO); test: Post-emergence herbicidal action against POLCO; conditions: dosage 80 g/ha
In short: as §1

[26] = 80 g/ha, visual scoring after about 3 weeks vs untreated controls

COC(=O)[C@@H](C)COC(=O)COc1nn(-c2ccccn2)c(-c2cncc(F)c2)c1Br [Example I-194]
Post-emergence action against VIOTR in % (Viola tricolor (VIOTR) [1]; 80 g/ha): 80%
Post-emergence action against VIOTR in % (Viola tricolor (VIOTR) [1]; 320 g/ha): 80%
Post-emergence action against PHBPU in % ([2]; dosage 80 g/ha): 90%
Post-emergence action against PHBPU in % ([2]; dosage 320 g/ha): 90%
Pre-emergence action against DIGSA in % [3, 26]: 90%
Pre-emergence action against DIGSA in % ([3]; dosage 320 g/ha): 100%
Post-emergence action against VERPE in % ([4]; 320 g/ha, VERPE): 80%
Post-emergence action against AMARE in % ([5]; 80 g/ha, visual rating about 3 weeks after treatment vs untreated controls (100% = plants have died, 0% = like control plants)): 80%
Post-emergence action against AMARE in % ([5]; 320 g/ha, visual rating about 3 weeks after treatment): 90%
Pre-emergence action against VERPE in % [6]: 90%
Post-emergence action against LOLRI in % (Lolium rigidum (LOLRI) [7]; dosage 80 g/ha): 80%
Post-emergence action against LOLRI in % (Lolium rigidum (LOLRI) [7]; dosage 320 g/ha): 90%
Post-emergence action against AVEFA in % (Avena fatua (AVEFA) [8]): 90%
Post-emergence action against ORYSA in % (Oryza sativa (ORYSA); 80 g/ha, effect in comparison to untreated controls): 20%
Pre-emergence action against MATIN in % ([9]; dosage 80 g/ha): 90%
Pre-emergence action against MATIN in % ([9]; dosage 320 g/ha): 90%
Post-emergence action against DIGSA in % ([10]; 80 g/ha): 80%
Post-emergence action against DIGSA in % ([10]; 320 g/ha): 90%
Post-emergence action against ECHCG in % ([11]; dosage 80 g/ha): 80%
Post-emergence action against ECHCG in % ([11]; dosage 320 g/ha): 80%
Post-emergence action against SETVI in % (Setaria viridis (SETVI) [12]; dosage 80 g/ha): 90%
Post-emergence action against SETVI in % (Setaria viridis (SETVI) [12]; dosage 320 g/ha): 90%
Pre-emergence action against ALOMY ([13]; 80 g/ha): 80%
Pre-emergence action against ALOMY ([13]; 320 g/ha): 100%
Post-emergence action against ALOMY in % ([14]; 80 g/ha): 90%
Post-emergence action against ALOMY in % ([14]; 320 g/ha): 90%
Pre-emergence action against ECHCG in % ([15]; dosage 80 g/ha): 80%
Pre-emergence action against ECHCG in % ([15]; dosage 320 g/ha): 100%
Pre-emergence action against SETVI in % (Setaria viridis (SETVI) [16]; dosage 80 g/ha): 90%
Pre-emergence action against SETVI in % (Setaria viridis (SETVI) [16]; dosage 320 g/ha): 100%
Pre-emergence action against ABUTH [17]: 80%
Pre-emergence action against AVEFA in % (Avena fatua (AVEFA) [18]; 80 g/ha): 80%
Pre-emergence action against AVEFA in % (Avena fatua (AVEFA) [18]; 320 g/ha): 90%
Pre-emergence action against VIOTR in % (Viola tricolor (VIOTR) [19]; 320 g/ha, Viola tricolor): 100%
Pre-emergence action against AMARE in % ([20]; 80 g/ha): 100%
Pre-emergence action against AMARE in % ([20]; 320 g/ha): 100%
Pre-emergence action against POLCO in % ([21]; dosage 80 g/ha): 80%
Pre-emergence action against POLCO in % ([21]; dosage 320 g/ha): 100%
Post-emergence action against ABUTH in % ([22]; 320 g/ha): 80%
Pre-emergence action against PHBPU in % ([23]; dosage 80 g/ha): 90%
Pre-emergence action against PHBPU in % ([23]; dosage 320 g/ha): 90%
Pre-emergence action against LOLRI in % (Lolium rigidum (LOLRI) [24]; dosage 80 g/ha): 90%
Pre-emergence action against LOLRI in % (Lolium rigidum (LOLRI) [24]; dosage 320 g/ha): 100%

CCOC(=O)COc1nn(-c2ncccc2F)c(-c2ccc(F)nc2)c1Br [Example I-39]
Post-emergence action against VIOTR in % (Viola tricolor (VIOTR) [1]; 80 g/ha): 80%
Post-emergence action against PHBPU in % ([2]; dosage 80 g/ha): 80%
Pre-emergence action against DIGSA in % [3, 26]: 100%
Pre-emergence action against DIGSA in % ([3]; dosage 320 g/ha): 100%
Post-emergence action against VERPE in % ([4]; dosage 80 g/ha): 80%
Pre-emergence action against VERPE in % [6]: 100%
Post-emergence action against ORYSA in % (Oryza sativa (ORYSA); 20 g/ha, effect vs untreated controls): 0%
Post-emergence action against ZEAMX in % (crop plant compatibility) (Zea mays (ZEAMX)): 0%
Pre-emergence action against MATIN in % ([9]; dosage 320 g/ha): 100%
Post-emergence action against DIGSA in % ([10]; 80 g/ha): 90%
Post-emergence action against ECHCG in % ([11]; dosage 80 g/ha): 80%
Post-emergence action against SETVI in % (Setaria viridis (SETVI) [12]; dosage 80 g/ha): 80%
Pre-emergence action against ALOMY ([13]; 80 g/ha): 100%
Pre-emergence action against ALOMY ([13]; 320 g/ha): 100%
Post-emergence action against ALOMY in % ([14]; 80 g/ha): 100%
Pre-emergence action against ECHCG in % ([15]; dosage 320 g/ha): 100%
Pre-emergence action against SETVI in % (Setaria viridis (SETVI) [16]; dosage 80 g/ha): 100%
Pre-emergence action against SETVI in % (Setaria viridis (SETVI) [16]; dosage 320 g/ha): 100%
Pre-emergence action against ABUTH [17]: 90%
Pre-emergence action against AVEFA in % (Avena fatua (AVEFA) [18]; 320 g/ha): 90%
Pre-emergence action against VIOTR in % (Viola tricolor (VIOTR) [19]; 320 g/ha, Viola tricolor): 100%
Pre-emergence action against VIOTR in % (Viola tricolor (VIOTR) [19]; dosage 80 g/ha): 100%
Post-emergence action against POLCO in % [25]: 90%
Pre-emergence action against AMARE in % ([20]; 80 g/ha): 100%
Pre-emergence action against AMARE in % ([20]; 320 g/ha): 100%
Pre-emergence action against POLCO in % ([21]; dosage 320 g/ha): 90%
Post-emergence action against ABUTH in % ([22]; 80 g/ha): 90%
Pre-emergence action against LOLRI in % (Lolium rigidum (LOLRI) [24]; dosage 320 g/ha): 100%
